The values that follow are results of earlier work, collected in patent US12544334B2, “Metabolisable pH sensitive polymersomes” (UCL BUSINESS LTD, priority 2018, dated 2026).

For this series the following is noted: imidazole-bearing acid before conjugation to the cysteine N-terminus.

SMILES strings stand for the structures.

Regarding `O=C(O)Cn1ccnc1` [1H-imidazole-1-acetic acid], the pKa is 6.8.
With `O=C(O)Cc1c[nH]cn1` [4-imidazolacetic acid], the pKa was 6.6.

The pKa is the pH at which an ionisable group is half protonated.
